Like-named read-outs stand apart in the source and are kept apart here.
Tests used:
[1] = tested on: phosphorylation of IRF3 in THP-1 cells (STING activation); assay: Phosphorylation of IRF3: THP-1 cell ELISA; format: cell-based; conditions: Homo sapiens, 3 hours incubation, read-out: THP-1 CELL P-IRF3 EC50
Procedure: Phosphorylation of IRF3: THP-1 cell ELISA
STING activation results in recruitment of TBK1 and phosphorylation of IRF3 transcription factor before induction of type I interferons. THP-1 cells (InvivoGen) were grown in RPMI media plus 2 mM L-glutamine, 10% fetal bovine serum, and 0.5% Pen-Strep. 10^4 cells were seeded in 96-well plates and incubated overnight […]. Compounds serial diluted compounds in media (final 0.5% DMSO) were added to the cells and incubated for an additional 3 hours. After incubation, the plates were centrifuged at 2000 rpm for 5 min. The cells were then lysed in 100 μl RIPA buffer and vortexed for 30 minutes at room temperature. 25 μl of lysate was then transferred to clear polystyrene High Bind plates that had been previously coated with mouse anti-human IRF-3 capture antibody (BD Pharmigen), and allowed to incubate at 4° C. for 16 hours. The plates were then washed and incubated with rabbit anti-phospho-IRF3 detection antibody (Cell Signaling Technologies) for 1.5 hours at room temperature. Finally, an HRP-linked secondary antibody (Cell Signaling Technologies) was added for 30 min before the Glo Substrate Reagent (R&D Systems) was used generate the luminescent signal. The signal was measured using a Perkin-Elmer Envision microplate reader. Data were normalized to “% effect” with a positive control STING agonist that was known to maximize the phosphorylated IRF3 signal and the negative control was DMSO.

[2] = tested on: THP-1 Lucia ISG cells (IRF-inducible Lucia luciferase reporter); assay: Interferon-β induction: THP-1 ISG reporter cell line; format: cell-based; conditions: THP1-Lucia ISG, 24 hours incubation, read-out: THP-1 Lucia ISG Cells IFN-β EC50
Procedure: Interferon-β Induction: THP-1 ISG Reporter Cell Line
THP-1 Lucia™ ISG cells (InvivoGen) express the secreted luciferase “Lucia” reporter gene under the control of an IRF-inducible composite promotor comprised of five interferon response elements. THP-1 Lucia™ ISG cells were grown in RPMI media plus 2 mM L-glutamine, 10% fetal bovine serum, and 0.5% Pen-Strep. Hygromycin B and Zeocin were present to maintain stable transfection. 10^4 cells were seeded in 96-well plates and incubated overnight 37° C., 5% CO2. 50 μL of serial diluted compounds in media (final 0.5% DMSO) was and incubated for an additional 24 hours. After incubation, the plates were centrifuged at 2000 rpm for 10 min. 50 μl of cell culture supernatant of each well was transferred to a white, opaque 96-well plate. One pouch of QUANTI-Luc™ (InvivoGen) powder was prepared in 25 mL of endotoxin-free water and 100 μL of prepared warm QUANTI-Luc solution were added to each well containing the supernatant. The luminescence signal was measured using a Perkin-Elmer Envision microplate reader. Data were normalized to “% effect” with a positive control STING agonist that was known to maximize the luciferase signal and the negative control DMSO.

R232-STING [3] = target: T1, R232-STING (Homo sapiens (Human), UniProt Q86WV6, H232R); assay: biochemical
R232-STING [4] = target: T1, R232-STING; conditions: read-out: R232-STING SPA-IC50 Ki; STING residues 155-341, 100 nM 3H-cGAMP; KI from IC50 with Cheng-Prusoff equation

T1 sequence (Q86WV6 155-341 H232R): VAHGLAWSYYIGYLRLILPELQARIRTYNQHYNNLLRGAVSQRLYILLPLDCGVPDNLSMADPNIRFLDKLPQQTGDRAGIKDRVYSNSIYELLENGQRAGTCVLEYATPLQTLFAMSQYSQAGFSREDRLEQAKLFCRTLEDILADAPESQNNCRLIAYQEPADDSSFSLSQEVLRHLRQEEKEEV

Structure (SMILES) | EC50 [1] | EC50 [2] | Ki (R232-STING [3]) | Ki (R232-STING [4])
CCn1nc(C)cc1-c1cn(CC(C)O)c(-c2nc(C(N)=O)cc3c2cnn3C)n1 (racemic) [AIP05, (Rac)-4-[4-(1-ethyl-3-methyl-1H-pyrazol-5-yl)-1-(2-hydroxypropyl)-1H-imidazol-2-yl]-1-methyl-1H-pyrazolo[4,3-c]pyridine-6-carboxamide] | 1.23 µM | 1.25 µM | 0.0271 µM | –
Cc1cc(-c2cn(C)c(-c3nc(C(N)=O)cc4c3ccn4C)n2)n(CCCO)n1 [AIJ02, 4-{4-[1-(3-hydroxypropyl)-3-methyl-1H-pyrazol-5-yl]-1-methyl-1H-imidazol-2-yl}-1-methyl-1H-pyrrolo[3,2-c]pyridine-6-carboxamide] | 1.51 µM | 1.92 µM | 0.0397 µM | –
Cc1cc(-c2cn(C)c(-c3nc(C(N)=O)cc4c3cnn4C)n2)n(CC#N)n1 [Example AIP01, 4-{4-[1-(cyanomethyl)-3-methyl-1H-pyrazol-5-yl]-1-methyl-1H-imidazol-2-yl}-1-methyl-1H-pyrazolo[4,3-c]pyridine-6-carboxamide] | > 10 µM | > 10 µM | – | 0.0431 µM
Cc1cc(-c2cn(C)c(-c3nc(C(N)=O)cc4c3cnn4C)n2)n(CC(N)=O)n1 [Example AIP02, 4-{4-[1-(2-amino-2-oxoethyl)-3-methyl-1H-pyrazol-5-yl]-1-methyl-1H-imidazol-2-yl}-1-methyl-1H-pyrazolo[4,3-c]pyridine-6-carboxamide] | > 10 µM | > 10 µM | – | 0.161 µM
Cc1cc(-c2cn(C)c(-c3nc(C(N)=O)cc4c3cnn4C)n2)n(CCC#N)n1 [Example AIQ01, 4-{4-[1-(2-cyanoethyl)-3-methyl-1H-pyrazol-5-yl]-1-methyl-1H-imidazol-2-yl}-1-methyl-1H-pyrazolo[4,3-c]pyridine-6-carboxamide] | 2.24 µM | 2.26 µM | – | 0.0626 µM
